# Laboratory results published in the supplement of paper PMC11451515.
# Tested on: SEM cells
# Experiment: cell viability relative to DMSO control; higher = less cytotoxic
# Settings: 48 h
# Summary of the method: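 Viability values are per-plate percentages of DMSO wells, with background from cell-free wells. Library compounds in DMSO were pin-dosed, in an 11-point threefold series from 47 μM to 0.79 nM, onto NOMO1 or SEM (500 cells/well) or P12-Ichikawa (1000 cells/well) leukemia cells in 1536-well plates (5 μl). Those cells had been adapted for at least four passages in each medium, and CellTiter-Glo One luminescence was read after 48 h at 37°C.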
# [1] = HPLM + 10% dialyzed FBS, 0.000781 µM
# [2] = HPLM + 10% dialyzed FBS, 0.00234 µM
# [3] = HPLM + 10% dialyzed FBS, 0.00702 µM
# [4] = HPLM + 10% dialyzed FBS, 0.0211 µM
# [5] = HPLM + 10% dialyzed FBS, 0.0632 µM
# [6] = HPLM + 10% dialyzed FBS, 0.19 µM
# [7] = HPLM + 10% dialyzed FBS, 0.569 µM
# [8] = HPLM + 10% dialyzed FBS, 1.71 µM
# [9] = HPLM + 10% dialyzed FBS, 5.12 µM
# [10] = HPLM + 10% dialyzed FBS, 15.4 µM
# [11] = HPLM + 10% dialyzed FBS, 46.1 µM
# [12] = RPMI 5 mM glucose + 10% dialyzed FBS, 0.000781 µM
# [13] = RPMI 5 mM glucose + 10% dialyzed FBS, 0.00234 µM
# [14] = RPMI 5 mM glucose + 10% dialyzed FBS, 0.00702 µM
# [15] = RPMI 5 mM glucose + 10% dialyzed FBS, 0.0211 µM
# [16] = RPMI 5 mM glucose + 10% dialyzed FBS, 0.0632 µM
# [17] = RPMI 5 mM glucose + 10% dialyzed FBS, 0.19 µM
# [18] = RPMI 5 mM glucose + 10% dialyzed FBS, 0.569 µM
# [19] = RPMI 5 mM glucose + 10% dialyzed FBS, 1.71 µM
# [20] = RPMI 5 mM glucose + 10% dialyzed FBS, 5.12 µM
# [21] = RPMI 5 mM glucose + 10% dialyzed FBS, 15.4 µM
# [22] = RPMI 5 mM glucose + 10% dialyzed FBS, 46.1 µM
# [23] = RPMI 5 mM glucose + 10% FBS, 0.000781 µM
# [24] = RPMI 5 mM glucose + 10% FBS, 0.00234 µM
# [25] = RPMI 5 mM glucose + 10% FBS, 0.00702 µM
# [26] = RPMI 5 mM glucose + 10% FBS, 0.0211 µM
# [27] = RPMI 5 mM glucose + 10% FBS, 0.0632 µM
# [28] = RPMI 5 mM glucose + 10% FBS, 0.19 µM
# [29] = RPMI 5 mM glucose + 10% FBS, 0.569 µM
# [30] = RPMI 5 mM glucose + 10% FBS, 1.71 µM
# [31] = RPMI 5 mM glucose + 10% FBS, 5.12 µM
# [32] = RPMI 5 mM glucose + 10% FBS, 15.4 µM
# [33] = RPMI 5 mM glucose + 10% FBS, 46.1 µM
Structure (SMILES),cell viability [1] [%],cell viability [2] [%],cell viability [3] [%],cell viability [4] [%],cell viability [5] [%],cell viability [6] [%],cell viability [7] [%],cell viability [8] [%],cell viability [9] [%],cell viability [10] [%],cell viability [11] [%],cell viability [12] [%],cell viability [13] [%],cell viability [14] [%],cell viability [15] [%],cell viability [16] [%],cell viability [17] [%],cell viability [18] [%],cell viability [19] [%],cell viability [20] [%],cell viability [21] [%],cell viability [22] [%],cell viability [23] [%],cell viability [24] [%],cell viability [25] [%],cell viability [26] [%],cell viability [27] [%],cell viability [28] [%],cell viability [29] [%],cell viability [30] [%],cell viability [31] [%],cell viability [32] [%],cell viability [33] [%]
O=P1(N(CCCl)CCCl)NCCCO1 (stereo unspecified),113,104,96.5,110,110,114,92.8,111,84.8,29.5,17.9,96.6,95.6,98.6,119,99.7,102,109,84,80.5,20.2,11.4,,,,,,,,,,,
C[N]1N=CC2=C1C=C(C(=C2)OC3=CC=C(NC(=O)\C4=C\C=C(\C)N(C4=O)C5=CC=C(F)C=C5)C=C3F)C6=C[NH]N=C6,98.7,93.2,94.4,94.5,62.3,54,48.3,43,11.1,6.77,7.19,98.5,105,97.8,89.4,54.5,52.1,50.8,43.7,11.4,7.29,7.53,91.5,100,96.6,84.3,54.7,56.1,59.1,38.9,9.63,8.07,8.6
CCC[C@@H](C=O)NC(=O)[C@H](CC(C)C)NC(=O)[C@H](CC(C)C)NC(=O)OCc1ccccc1,107,111,106,121,124,117,132,92.7,8.49,8.38,6.36,97.6,101,120,116,134,119,118,45.7,9.18,8.63,6.53,105,103,125,111,129,130,55.3,8.42,8.05,8.14,6.25
CC[C@H](NC(C)C)[C@H](O)c1ccc(O)c2[nH]c(=O)ccc12,75.6,90.5,101,92.8,89.3,100,94.6,98.1,98.5,98.8,68.4,100,87.5,98,109,119,109,125,105,113,98.9,85.5,89.2,112,96.9,107,109,98.1,108,100,104,106,79.3
CCc1ccc(C(=O)Nc2cc(CN3CCN(C)CC3)cc(C(F)(F)F)c2)cc1C#Cc1cnc2ccnn2c1,121,113,122,126,116,128,77.4,122,109,73.7,74.4,,,,,,,,,,,,110,118,114,109,111,106,98.3,116,95.9,94.1,71.9
CCCc1nc2c(C)cc(-c3nc4ccccc4n3C)cc2n1Cc1ccc(-c2ccccc2C(=O)O)cc1,117,115,123,120,124,140,100,71.4,127,140,144,103,138,119,92.4,120,125,87.8,64,120,116,132,114,121,152,133,124,124,101,84.1,159,138,137
NC(=O)c1ccc(-c2nc(-c3ccc4c(c3)OCO4)c(-c3ccccn3)[nH]2)cc1,123,116,128,25.6,130,121,124,125,128,129,122,108,123,110,18.9,120,111,128,131,123,134,102,93.4,85.5,98.2,9.45,89.5,86.8,92.1,93.7,102,86.3,66.9
CC1(C)Cc2c(sc(NC(=S)NC(=O)c3ccccc3)c2C(=O)O)CO1,74.1,89.5,91.9,89.1,96.7,98.3,97.6,108,101,88.3,101,65.2,84,85.4,87.8,96.6,88.3,95.4,91.7,89.6,102,88.5,94,109,108,93.1,112,112,110,113,101,105,106
CN(c1nccc(=O)[nH]1)C1CCN(c2nc3ccccc3n2Cc2ccc(F)cc2)CC1,105,107,115,113,112,113,108,110,115,91,123,94.7,103,102,111,106,113,109,106,101,104,99.6,78.4,94.8,95,80,84.8,88.9,95.3,98.1,91.9,79.7,87.7
Cn1c(=O)c2[nH]cnc2n(C)c1=O,102,112,107,109,108,110,98.6,117,105,110,102,98.8,126,102,115,124,113,106,114,105,124,104,104,107,110,98.1,98.2,103,99.7,94.8,110,99,97.2
C/C(=C\c1csc(C)n1)[C@@H]1C[C@@H]2O[C@]2(C)CCC[C@H](C)[C@H](O)[C@@H](C)C(=O)C(C)(C)[C@@H](O)CC(=O)O1,20.1,19.1,23,36.1,21,22,19.7,19.5,18.2,20.3,19.9,20.7,18.4,14,50.3,20.6,16.9,14.3,16.2,16.6,16.3,15.6,11.4,15.3,17.3,19.1,16.8,17.3,15.8,14.1,13.1,14.9,16.9
